Some test systems named below: EKVX NSCLC; HCT-116 colon; K-562 leukemia; NCI-H226 lung; PC-3 prostate; SK-MEL-5 melanoma; SK-OV-3 ovarian; SNB-19 CNS; U251 CNS; UACC-62 melanoma.
Assay in all cases: growth of human tumour cells (NCI), 48 h

Drawing on PubChem BioAssay (NCI), this text covers TGI and GI50 for 13 compounds.

Molecules are shown by their SMILES.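 The compound was tested at five concentrations on cells cultured in 96-well plates, with a 48-hour exposure period. The concentration for 50% growth inhibition is given as GI50. Definition used: TGI = concentration required for complete inhibition of growth.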

Turning to `C=C(C)C(=O)O[C@H]1CC2(CO)O[C@@H]2CC/C(COC(C)=O)=C/C2OC(=O)C(=C)[C@@H]21` (stereo partly specified), the TGI in the assay on EKVX NSCLC is greater than 100 µM; with HCT-116 colon it was 39.4 µM; in the assay on K-562 leukemia, 74 µM; with NCI-H226 lung, greater than 100 µM; in the assay with PC-3 prostate, greater than 100 µM; in the assay with SK-MEL-5 melanoma, greater than 100 µM. Further, the TGI with SK-OV-3 ovarian, with SNB-19 CNS, in the assay on U251 CNS and in the assay on UACC-62 melanoma was greater than 100 µM each time.
With `COCCN(C(=O)c1ccccc1)C1CCC(=O)c2[nH]c3ccccc3c21` (stereo unspecified), the TGI was determined as 25.7 µM in the assay on EKVX NSCLC; 26.5 µM in the assay with HCT-116 colon; 18.3 µM in the assay with K-562 leukemia; 20.6 µM in the assay with NCI-H226 lung; 12.8 µM in the assay on PC-3 prostate; 20.2 µM in the assay with SK-MEL-5 melanoma. Besides, the TGI with SK-OV-3 ovarian amounted to 29 µM; in the assay on SNB-19 CNS it was 24.3 µM; in the assay on U251 CNS it was 3.99 µM; in the assay on UACC-62 melanoma, 36.5 µM.
Consider `O=C(c1ccccc1)c1ccc2nc(-c3c(Cl)c(Cl)c(Cl)c(Cl)c3C(=O)Nc3ccco3)[nH]c2c1`, for which the TGI in the assay with EKVX NSCLC, with HCT-116 colon, with K-562 leukemia, in the assay with NCI-H226 lung, in the assay on PC-3 prostate and in the assay on SK-MEL-5 melanoma was greater than 100 µM each time. The TGI in the assay on SK-OV-3 ovarian, in the assay on SNB-19 CNS, in the assay with U251 CNS and with UACC-62 melanoma was greater than 100 µM in each case.
Consider `CN1CCCC(OC(=O)c2cc3cc(CCl)ccc3oc2=O)C1` (stereo unspecified), for which the TGI in the assay on EKVX NSCLC was 91.5 µM; in the assay on HCT-116 colon, 48.7 µM; with K-562 leukemia, greater than 100 µM; in the assay on NCI-H226 lung, 58.1 µM; with PC-3 prostate it was 41.3 µM; in the assay with SK-MEL-5 melanoma, 33.9 µM. Also, the TGI is greater than 100 µM in the assay on SK-OV-3 ovarian, greater than 100 µM with SNB-19 CNS, 30.1 µM in the assay with U251 CNS and 31.6 µM with UACC-62 melanoma.
As for `Cc1cn([C@@H]2C[C@](C)(CO)N(C)O2)c(=O)[nH]c1=O`, the TGI with EKVX NSCLC, with HCT-116 colon, with K-562 leukemia, in the assay with NCI-H226 lung, in the assay on PC-3 prostate and in the assay on SK-MEL-5 melanoma was greater than 100 µM in each case. Also, the TGI in the assay with SK-OV-3 ovarian, in the assay with SNB-19 CNS, in the assay on U251 CNS and in the assay on UACC-62 melanoma was greater than 100 µM throughout.
Turning to `C#Cc1cccc(Nc2ncnc3cc(OCCOC)c(OCCOC)cc23)c1`, the GI50 in the assay with EKVX NSCLC is 0.301 µM; in the assay with K-562 leukemia it was 27.7 µM; in the assay on NCI-H226 lung, 47.4 µM. Besides, the TGI is greater than 93.7 µM in the assay on EKVX NSCLC; greater than 100 µM with HCT-116 colon; greater than 100 µM in the assay on K-562 leukemia; greater than 100 µM in the assay on NCI-H226 lung; greater than 100 µM in the assay on PC-3 prostate; greater than 78.9 µM in the assay on SK-MEL-5 melanoma. The TGI with SK-OV-3 ovarian was 5.2 µM; in the assay with SNB-19 CNS, 92 µM; in the assay on U251 CNS, 99 µM; with UACC-62 melanoma, 38 µM.
For the compound `Cc1sc2nc3n(sc4nc5sc(C)c(C)c5c(=O)n43)c(=O)c2c1C`, the TGI in the assay with EKVX NSCLC was 98.4 µM; in the assay on HCT-116 colon, greater than 100 µM; in the assay on K-562 leukemia, greater than 100 µM; in the assay with NCI-H226 lung, greater than 100 µM; with PC-3 prostate it was greater than 100 µM; in the assay with SK-MEL-5 melanoma it was greater than 100 µM. In addition, the TGI with SK-OV-3 ovarian was greater than 100 µM; with SNB-19 CNS, greater than 100 µM; with U251 CNS, greater than 100 µM; in the assay on UACC-62 melanoma, 87.6 µM.
With `CC(=O)c1cc(S(=O)(=O)c2ccc(O)c(C(C)=O)c2)ccc1O`, the TGI in the assay with EKVX NSCLC, in the assay with HCT-116 colon, in the assay on K-562 leukemia, with NCI-H226 lung, with PC-3 prostate and with SK-MEL-5 melanoma was greater than 100 µM each time. For the same compound, the TGI in the assay with SK-OV-3 ovarian, in the assay on SNB-19 CNS, in the assay with U251 CNS and in the assay with UACC-62 melanoma was greater than 100 µM each time.
With `COC(C[C@H]1CCCC[C@]1(O)/C(=C\CO[Si](C(C)C)(C(C)C)C(C)C)Sc1ccccc1)OC`, the TGI with EKVX NSCLC is greater than 100 µM; in the assay on HCT-116 colon, 85.1 µM; in the assay on K-562 leukemia, greater than 100 µM; in the assay on NCI-H226 lung, 62.4 µM; in the assay on PC-3 prostate, greater than 100 µM; in the assay on SK-MEL-5 melanoma, greater than 100 µM. Moreover, the TGI in the assay on SK-OV-3 ovarian was greater than 100 µM; in the assay on SNB-19 CNS, greater than 100 µM; in the assay with U251 CNS it was 51.8 µM; with UACC-62 melanoma, greater than 100 µM.
Turning to `Nc1cc2ncnc(Nc3cccc(Br)c3)c2cn1`, the TGI in the assay on HCT-116 colon is greater than 100 µM; in the assay on K-562 leukemia, greater than 100 µM; in the assay on NCI-H226 lung, 71 µM; with PC-3 prostate, greater than 100 µM; in the assay with SK-MEL-5 melanoma, greater than 100 µM; with SK-OV-3 ovarian, 74.4 µM. Moreover, the TGI in the assay with SNB-19 CNS, with U251 CNS and in the assay with UACC-62 melanoma was greater than 100 µM in each case.
Take `COC(=O)NC(Nc1ccc(C)cc1)(C(F)(F)F)C(F)(F)F`: the TGI with EKVX NSCLC, in the assay with HCT-116 colon, with K-562 leukemia, in the assay on NCI-H226 lung, in the assay on PC-3 prostate and in the assay on SK-MEL-5 melanoma was greater than 100 µM throughout. The TGI with SK-OV-3 ovarian, in the assay with SNB-19 CNS, in the assay with U251 CNS and in the assay on UACC-62 melanoma was greater than 100 µM throughout.
For `CCC(=O)Nc1ccc(N2C(=O)/C(=C/c3ccc(O)c(OC)c3)N=C2c2ccccc2)cc1`, the TGI in the assay with EKVX NSCLC is 46.4 µM; in the assay on HCT-116 colon, greater than 100 µM; with K-562 leukemia, greater than 100 µM; with NCI-H226 lung, 50.5 µM; in the assay on PC-3 prostate, 60.8 µM; in the assay with SK-MEL-5 melanoma it was 32.8 µM. Also, the TGI with SK-OV-3 ovarian, with SNB-19 CNS and with UACC-62 melanoma was greater than 100 µM throughout.
`CC(C)Oc1cc2c(cc1O)CC[C@@H]1[C@@H]2CC[C@]2(C)[C@@H](O)CC[C@@H]12`: the TGI in the assay on EKVX NSCLC was greater than 62 µM; in the assay on HCT-116 colon, 14.7 µM; with K-562 leukemia, 30.8 µM; with NCI-H226 lung, 18.4 µM; in the assay on PC-3 prostate, greater than 67.4 µM; with SK-MEL-5 melanoma, 12.8 µM. Besides, the TGI came to 48.3 µM in the assay on SK-OV-3 ovarian, 31.8 µM in the assay on SNB-19 CNS, 24.4 µM in the assay with U251 CNS and 13.2 µM with UACC-62 melanoma.
